In US20240349768A1, “SWEETENER BLEND COMPRISING THAUMATIN AND ONE OR MORE REBAUDIOSIDE” (NOMAD BIOSCIENCE GMBH, priority 2021, published 2024):

How the values were obtained:
test panelists [1] = assay: Round table evaluation of sweetness intensity (SEV) against sucrose reference samples; assay type: in vivo; settings: 7 panelists, mean
Experimental: Round table evaluations were performed with 7 test panelists. Equal sweet 5 SEV concentrations in neutral pH water were made for Thaumatin II (purity greater than 90%), Rebaudioside A, and Rebaudioside M. These equal sweet solutions were also mixed at 50% of Thaumatin II and 50% Reb M or RebA and compared to the individual components. The components of the test compositions are described in the below tables. The mixed compositions were calculated using the Beidler mixture equation for the sweeteners. The Beidler mixture equation for sweeteners is as follows: [formula] The concentration of each component in the mixture in ppm is divided by SEV (c/R) and is plotted against concentration, c. The slope of the linear regression is the maximum SEV (Rmax). The y-intercept of the linear regression multiplied by Rmax is the half-maximal sweetness concentration, 1/K. Rmax and 1/K are the two parameters used in the Beidler equation. Mixtures were tasted in comparison to reference samples for the panelists to determine SEV values. References samples were 3%, 4%, 5%, 6%, 7%, and 8% sucrose in neutral pH water. The test samples were served in 2 ounce soufflé cups (approximately 60 ml) coded with 3-digit codes at room temperature. A two minute wait period between samples was enforced. Water and unsalted crackers was available for the panelists to clear their palates before and during testing. Results were collected for calculating approximate SEV level of each test sample.

test panelists [2] = assay: Round table qualitative assessment of quality of sweetness and undesirable attributes, scale of 1-10; assay type: in vivo; settings: for Quality of sweetness (higher better): scale 1-10, 10 = 5% sucrose, 1 = 500 ppm RebA; for Off taste (lower better): scale 1-10, 10 = 500 ppm RebA, 1 = 5% sucrose
Experimental: Round table evaluations were performed with 7 test panelists. Equal sweet 5 SEV concentrations in neutral pH water were made for Thaumatin II (purity greater than 90%), Rebaudioside A, and Rebaudioside M. These equal sweet solutions were also mixed at 50% of Thaumatin II and 50% Reb M or RebA and compared to the individual components. All solutions were coded and blinded from panelists. Panelists were asked to provide a qualitative assessment on a scale of 1-10 of the quality of sweetness (10 being the highest quality of sweetness) and undesirable attributes (10 being most undesirable) of each solution using a 5% sucrose and 500 ppm RebA solutions as controls. For the quality of sweetness, the score 10 was assigned to 5% sucrose. Vice versa, the score 1 was assigned to and 500 ppm RebA. For undesirable attributes, the scores 10 and 1 were assigned to 500 ppm RebA and 5% sucrose, respectively.

Molecule: C=C1C[C@@]23CC[C@H]4[C@@](C)(CCC[C@@]4(C)C(=O)O[C@@H]4O[C@H](CO)[C@@H](O)[C@H](O)[C@H]4O)[C@@H]2CC[C@]1(O[C@@H]1O[C@H](CO)[C@@H](O)[C@H](O[C@@H]2O[C@H](CO)[C@@H](O)[C@H](O)[C@H]2O)[C@H]1O[C@@H]1O[C@H](CO)[C@@H](O)[C@H](O)[C@H]1O)C3 [Rebaudioside A]
- Sweetness intensity determined, SEV (test panelists [1]; 260 ppm in neutral pH water): 4.8 SEV
- Quality of sweetness (higher better) (test panelists [2]; 260 ppm in neutral pH water): 5.6
- Off taste (lower better) (test panelists [2]; 260 ppm in neutral pH water): 6.7

Molecule: C=C1C[C@@]23CC[C@H]4[C@@](C)(CCC[C@@]4(C)C(=O)O[C@@H]4O[C@H](CO)[C@@H](O)[C@H](O[C@@H]5O[C@H](CO)[C@@H](O)[C@H](O)[C@H]5O)[C@H]4O[C@@H]4O[C@H](CO)[C@@H](O)[C@H](O)[C@H]4O)[C@@H]2CC[C@]1(O[C@@H]1O[C@H](CO)[C@@H](O)[C@H](O[C@@H]2O[C@H](CO)[C@@H](O)[C@H](O)[C@H]2O)[C@H]1O[C@@H]1O[C@H](CO)[C@@H](O)[C@H](O)[C@H]1O)C3 [Rebaudioside M]
- Sweetness intensity determined, SEV (test panelists [1]; 155 ppm in neutral pH water): 5.3 SEV
- Quality of sweetness (higher better) (test panelists [2]; 155 ppm in neutral pH water): 8.8
- Off taste (lower better) (test panelists [2]; 155 ppm in neutral pH water): 2.5
- Quality of sweetness and off taste, in words (test panelists [2]; equal sweet 5 SEV solutions and their 50%/50% mixtures in neutral pH water): very mild artificial off taste

B1: Thaumatin II: oligopeptide or protein of SEQ ID NO: 2; recombinant, purity greater than 90%, purified from transgenic Nicotiana tabacum plants (protein, listed as Thaumatococcus daniellii)
chain: ATFEIVNRCSYTVWAAASKGDAALDAGGRQLNSGESWTINVEPGTKGGKIWARTDCYFDDSGRGICRTGDCGGLLQCKRFGRPPTTLAEFSLNQYGKDYIDISNIKGFNVPMDFSPTTRGCRGVRCAADIVGQCPAKLKAPGGGCNDACTVFQTSEYCCTTGKCGPTEYSRFFKRLCPDAFSYVLDKPTTVTCPGSSNYRVTFCPTA
- Sweetness intensity determined, SEV (test panelists [1]; 7 ppm in neutral pH water): 4.6 SEV
- Quality of sweetness (higher better) (test panelists [2]; 7 ppm in neutral pH water): 6.5
- Off taste (lower better) (test panelists [2]; 7 ppm in neutral pH water): 4.7
